Broadly, the GI50 is the concentration giving 50% growth inhibition. Broadly, the TGI is the concentration at which net growth stops. Low values mean greater sensitivity of the cells, high ones lower sensitivity of the cells.

Structures are written as SMILES. Where “and” joins values, the source holds several entries; their conditions need not be identical. Identical values can stand only once.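 Protocol summary: plate cells (96-well), add compound at 5 concentrations, incubate 48 h, interpolate endpoints linearly. GI50: concentration for 50% inhibition of growth. Definition used: TGI = concentration required for complete inhibition of growth.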

Assay in all cases: DTP human tumour cell line panel, 48 h
Experiment [1] relates to A498 renal.
The subject of experiment [2] is A549 NSCLC.
The test system of experiment [3] is K-562 leukemia.
The subject of experiment [4] is M14 melanoma.
For experiment [5], the system named is NCI-H226 lung.
In experiment [6] the test system is NCI-H460 lung.
Experiment [7] concerns RXF 393 renal.
For experiment [8], the system named is SF-295 CNS.
Experiment [9] has as its system TK-10 renal.
In experiment [10] the test system is UACC-62 melanoma.

Consider `COc1ccc(OC)c2c1[nH]c(=O)c1c3ccccc3cn21`, for which the GI50 in experiment [1] is 1770 nM; in [2], 1020 nM; in [3], 692 nM; in experiment [4], 1790 nM; in experiment [5], 1610 nM; in [6], 1100 nM. Also, the GI50 in experiment [7] is 1500 nM; in experiment [8], 1250 nM; in [9], 2010 nM; in experiment [10], 1550 nM. In addition, the TGI in experiment [1] is 3200 nM; in [2], 2370 nM; in experiment [3], 3120 nM; in [4], 3370 nM; in experiment [5] it was 3290 nM; in experiment [6] it was 2730 nM. For the same compound, the TGI amounted to 3010 nM in experiment [7], 2700 nM in experiment [8], 3760 nM in experiment [9] and 2920 nM in experiment [10].
Turning to `CN1CCN(C2CCN(C(=O)Nc3cc(Oc4ccc(NC(=O)C5(C(=O)Nc6ccc(F)cc6)CC5)c(F)c4)ccn3)CC2)CC1`, the GI50 in experiment [1] is 315 nM; in experiment [2], 1380 nM; in experiment [3] it was 514 nM; in experiment [4] it was 639 nM; in experiment [6], 1440 nM; in [7], 918 nM. In addition, the figures for the GI50 in experiment [8], in experiment [9] and in [10] were 470 nM, 365 nM and 771 nM, respectively. The TGI is 1380 nM in [1]; above 10000 nM in experiment [2]; above 2530 nM in experiment [3]; 1800 nM in experiment [4]; above 3120 nM in experiment [5]; above 10000 nM in experiment [6]. Moreover, the TGI was above 2400 nM in [7], above 3670 nM in [8], above 10000 nM in [9] and above 2020 nM in experiment [10].
Consider `Oc1ccc(Nc2ncnc3c2sc2ncccc23)cc1`, for which the GI50 in experiment [1] is 23.6 nM; in experiment [2], 16.4 nM; in experiment [3] it was 360 nM; in experiment [4] it was 12 nM; in experiment [5], 352 nM; in [6] it was below 10 nM. For the same compound, the GI50 in experiment [7] is 71 nM; in experiment [8], 38.9 nM; in [9] it was above 100000 nM; in [10], 37.9 nM. In addition, the TGI was 1930 nM in experiment [1]; above 100000 nM in experiment [2]; above 100000 nM in [3]; 55.1 nM in [4]; above 100000 nM in experiment [5]; above 100000 nM in experiment [6]. The TGI in experiment [7] was 97000 nM; in [8], above 100000 nM; in experiment [9], above 100000 nM; in experiment [10], 46100 nM.
As for `C(=NCCN1CCOCC1)=NC1CCCCC1`, the TGI in [1], in experiment [2], in experiment [3], in [4], in experiment [5] and in experiment [6] was above 100000 nM in each case. Moreover, the TGI in experiment [7], in experiment [8], in experiment [9] and in experiment [10] was above 100000 nM throughout.
Turning to `CC(=O)Nc1ccc(S(=O)(=O)N2C(=O)CCC2C(=O)Nc2ccc(Br)cc2)cc1` (stereo not drawn), the GI50 in experiment [1] is 435 nM; in [2], 1600 nM; in [3], 1950 nM; in experiment [4] it was 2920 nM; in [5], 2260 nM; in [6] it was 2630 nM. Also, the GI50 in experiment [7] was 2310 nM; in experiment [8], 2110 nM; in experiment [9], 4490 nM; in experiment [10] it was 648 nM. Further, the TGI in [1] was determined as 4710 nM; in experiment [2], 13400 nM; in experiment [3] it was 10700 nM; in [4] it was 32800 nM; in experiment [5] it was 13200 nM; in experiment [6], 24500 nM. Besides, the TGI in experiment [7] is 6280 nM; in experiment [8] it was 12100 nM; in experiment [9], 15400 nM; in experiment [10] it was 4540 nM.
Take `O=c1/c(=C/c2ccccc2[N+](=O)[O-])sc2nnc(-c3ccco3)n12`: the TGI in experiment [1] was above 100000 nM; in experiment [2], 60300 nM; in [3] it was above 100000 nM; in experiment [4] it was 33300 nM; in experiment [5] it was 61000 nM; in experiment [6], 56200 nM. Also, the TGI in experiment [7] was 32600 nM; in experiment [8], 55500 nM; in [9], above 100000 nM; in experiment [10] it was above 100000 nM.
On to `O=C1c2ccccc2C(=O)N1CCn1ccc(NC(c2ccccc2)(c2ccccc2)c2ccccc2)nc1=O`, for which the TGI in experiment [1] was 38600 nM; in [2], above 100000 nM; in experiment [3] it was 63800 nM; in experiment [4] it was 43000 nM; in experiment [5], 34100 nM; in experiment [6], 65500 nM. Further, the TGI in [7] came to 35500 nM; in experiment [8] it was 28800 nM; in experiment [9], 69500 nM; in experiment [10], 26000 nM.
For `COC(=O)C[C@](O)(CCCC(C)(C)O)C(=O)O[C@@H]1C(OC)=C[C@]23CCCN2CCc2cc4c(cc2[C@H]13)OCO4`, the GI50 was 17.3 nM in experiment [1]; 95.3 nM and 23.8 nM in [2]; 29.2 nM in experiment [3]; 22.8 nM in experiment [4]; 11.2 nM in [5]; 16 nM and < 10 nM in experiment [6]. Also, the GI50 is 21.7 nM in experiment [7], 23.7 nM in [8], 34.7 nM in [9] and 30 nM in experiment [10]. The TGI in experiment [1] is 146 nM and 39.6 nM; in [6], 270 nM and 88 nM; in [7], 503 nM and 107 nM; in experiment [10] it was 712 nM and 137 nM.
For the compound `c1ccc(-c2nnc(-c3ccccn3)s2)nc1`, the GI50 in experiment [1], in experiment [2], in experiment [3], in experiment [4], in [5] and in experiment [6] was above 100000 nM throughout. Further, the GI50 in experiment [7], in [8], in experiment [9] and in experiment [10] was above 100000 nM in each case. In addition, the TGI in experiment [1], in experiment [2], in [3], in [4], in experiment [5] and in [6] was above 100000 nM throughout. The TGI in [7], in [8], in [9] and in [10] was above 100000 nM in each case.

These data come from PubChem BioAssay (NCI).
